“Also recorded” adds a separate entry of the source.

Here are results for 1 molecule from patent US5602156A, “Method for inhibiting metalloproteinase expression” (The United States of America as represented by the …, priority 1994, dated 1997).

Assay [1] deals with receptor-operated and voltage-gated calcium influx. Particulars: cited from earlier work.
The next assay has as its system phospholipase C-γ. As to conditions: cited from earlier work.
For a further assay, the system named is gelatinase activity. The experiment in a line: Gelatin zymography of A2058 and HT1080 cells, compound 1 with or without TGF-β1 (results in words). It is filed as cell-based, human. Here is the method:
(§1) A2058 and HT1080 cells were incubated with compound 1 (2 μM), with or without TGF-β1 (5 ng/mL) for 24 and 48 hours prior to harvest of conditioned media. Aliquots were subjected to gelatin zymography as described in Example 1. Known concentrated conditioned medium from HT1080 cells was used for identification of the gelatinase species (92 kDa, gelatinase B/MMP-9; 72 kDa, gelatinase A/MMP-2 latent form; 65 kDa intermediate and 62 kDa activated forms of MMP-2).
Lane 1 is the control resulting from treatment of the cells with 0.1% DMSO. Lanes 2 and 3 correspond to those cells which are treated with 2 μM compound 1 in the absence of TGF-β1 for 24 and 48 hours, respectively. Lane 4 corresponds to cells which have been treated with TGF-β1 in the absence of compound 1. Lane 5 corresponds to cells which have been treated with TGF-β1 for 48 hours with compound 1 being added to the incubation mixture for the final 24 hours. Lane 6 corresponds to cells which have been treated for 48 hours with both TGF-β1 and compound 1.

For a further assay, the system named is arachidonic acid release. As to conditions: cited from earlier work.
A further assay deals with MMP-1. The assay is described as follows: Northern blot of MMP-1 mRNA from A2058 cells. It is filed as cell-based, human. As to conditions: 2 μM. The procedure: This example illustrates the effect of compound 1 on MMP-1 and MMP-2 mRNA from A2058 cells using Northern blot analysis.
Total cytoplasmic RNA was purified from A2058 cells using cesium chloride density centrifugation. Cells were treated with DMSO vehicle (0.05 %) or compound 1 (2 μM) for 24 or 48 hr. Total RNA yields from treated and control cells (μg/10^6 cells) were similar. Aliquots (5 μg) of total RNA were denatured and separated on formaldehyde-1% agarose slab gels, passively transferred to GeneScreen, and crosslinked using ultraviolet light exposure. RNA was hybridized in buffer (50% deionized formamide, 5x SSC, 10 mM Tris HCl pH 7.5, 1x Denharts solution without albumin, 1.0% SDS, and 0.125 mg/mL salmon sperm DNA) containing 10^6 counts/mL of ^32 P- labeled probe of either MMP-2, MMP-1, or with GAPDH which was used as a measure of RNA load. Probes were labeled to high specific activity with ^32 P-dCTP using a random primer labeling protocol. The cDNA probes for the MMP-2, MMP-1, and GAPDH have been described. See, Brown, et al., Cancer Res. 50:6184-6191 (1990); Templeton, et at., Cancer Res. 50:5431-5437 (1990); and Fort, et al., Nucleic Acids Res. 13:1431-1441 (1985). Radiolabeled bands were quantitated using laser densitometric analysis of autoradiography bands. […]

In assay [2] the test system is proliferation and metastasis. As to conditions: cited from earlier work.
In assay [3] the test system is MMP-2. The assay is described as follows: Western immunoblot of MMP-2 species in conditioned media. It is filed as cell-based, human. The procedure:
Conditioned media for zymogram and Western blot analysis were produced under serum-free conditions. Cells (2 million) were plated in 25 cm^2 flasks in serum-containing medium and cultured overnight. Serum-containingmedium was removed and the cell monolayers were washed twice with DMEM/ITS (DMEM containing insulin (5 μg/mL), transferrin (5 μg/mL), and selenium (5 ng/mL)). The resultant cells were fed with 3 mL of DMEM/ITS and additives as described in the Examples for two 24 hour periods. Conditioned media samples were collected at 24 hours and cells were refed with fresh DMEM/ITS containing the described additives for an additional 24 hours. Conditioned media samples were centrifuged to remove cells and debris then frozen at -20° C. until use. Freeze and thaw cycles of the conditioned media were limited to no more than two.
This example illustrates the dose-dependent effects of compound 1 on the presence of MMP-2 and its activated species. Western immunoblots were used to detect the effect of compound 1 on the presence of MMP-2 and its activated species and for crude quantitation of MMP-2 presence.
(§2) A2058 and HT1080 conditioned media samples were concentrated 10-fold using ultrafiltration units excluding material of less than 10 or 30 kDa in molecular weight. Aliquots of 15 μL were electrophoresed on 4-20% gradient PAGE gels, electrically transferred to membranes and immunoblotted with specific polyclonal antibody to proMMP-2. This antibody, made to the MMP-2/TIMP-2 complex recognizes the latent and activated MMP-2 species and crossreacts with TIMP-2 (21 kDa).
A general note: A western blot detects proteins with antibodies after separation by electrophoresis.

Assay [4] deals with MMP-2. The assay is described as follows: Western immunoblot of conditioned media from compound 1 and TGF-β1 treated cells. Particulars: HT1080 and A2058; 2 μM, 24 and 48 hr. It is filed as cell-based, human. The procedure: as §2, §1
Lane 1 is the control resulting from treatment of the cells with 0.1% DMSO. Lanes 2 and 3 correspond to those cells which are treated with 2 μM compound 1 in the absence of TGF-β1 for 24 and 48 hours, respectively. Lane 4 corresponds to cells which have been treated with TGF-β1 in the absence of compound 1. Lane 5 corresponds to cells which have been treated with TGF-β1 for 48 hours with compound 1 being added to the incubation mixture for the final 24 hours. […]

Assay [5] deals with gelatinase activity of the metalloproteinases. The assay is described as follows: Zymogram slices incubated with compound 1 or calcium chelators in the activating buffer (direct inhibition of enzyme). It is filed as biochemical, human. Here is the method:
See, Felder, et al., J. Pharm. Exp. Therapeut. 257:967-971 (1991) and unpublished observations by the inventors.
Gelatin zymography was carded out using control conditioned media from A2058 cells and HT1080 cells in the absence of compound 1. Zymogram slices were incubated in low salt collagenase buffer with control (DMSO 0.1%), an inhibitory dose of compound 1 (20 μM), or the calcium chelators EGTA (10 mM) and EDTA (10 mM). […] See, Brown, et al., Cancer Res. 50:6184-6191 (1990). […] Lane 1 for each of the zymograms corresponds to A2058 while lane 2 corresponds to HT1080.

For `NC(=O)c1nnn(Cc2cc(Cl)c(C(=O)c3ccc(Cl)cc3)c(Cl)c2)c1N` [Compound 1, 5-amino-l-(4-(4-chlorobenzoyl)-3,5-dichlorobenzyl)-1,2,3-triazole-4-carboxamide], in assay [1], the calcium influx inhibition result was “inhibits receptor-operated and voltage-gated calcium influx; also recorded: inhibit receptor-stimulated and voltage-gatedcalcium entry across cell membranes”. The “tyrosine phosphorylation with activation of phospholipase C-γ” value in the assay on phospholipase C-γ is “inhibits”. Also, the “reduction of gelatinase activity” value in the assay with gelatinase activity (A2058 and HT1080, 2 μM, 24 and 48 hr, no TGF-β1) is recorded as “increased from 24 to 48 hr exposure”. For the same molecule, the “effect on TGF-β1-increased gelatinase activity” value is “little effect” in the assay with gelatinase activity (TGF-β1 48 hr, compound 1 over the final 24 hr) and “inhibited” in the assay with gelatinase activity (TGF-β1 with compound 1 co-incubation for 48 hr). Further, in the assay on arachidonic acid release, the arachidonic acid release entry is recorded as “inhibits”. In addition, the “expression of interstitial collagenase MMP-1” value in the assay with MMP-1 is “inhibits the expression of interstitial collagenase MMP-1”. Further, in assay [2], the “antiproliferative and antimetastatic activities” value was “antiproliferative and antimetastatic activities”. For the same molecule, the “presence of the MMP-2 species” value with MMP-2 [3] (A2058 and HT1080, FIG. 4) is given as “dose-dependent reduction of the presence of the MMP-2 species”; in the assay with MMP-2 [3] (A2058 and HT1080, FIG. 4, listed as compound 1) it was “dose-dependent”; with MMP-2 [3] (after incubation with 20 μM compound 1), “more complete reduction of all species”. For the same molecule, the “shift of MMP-2 species” value in the assay on MMP-2 [3] (before more complete reduction of all species) is reported as “shift to the lower molecular weight activated species”. For the same molecule, the “inhibition of MMP-2 (immunoblot)” value in the assay on MMP-2 [4] is on record as “inhibits MMP-2 in a time-dependent manner”. Also, the “mechanism not due to calcium chelation” value in assay [5] is reported as “not due to calcium chelation”. In assay [5] (compound 1 in zymogram incubation buffer, 20 μM, A2058 and HT1080 media), the “gelatinase activity of enzymes in isolation” value is “lack of reduction of gelatinolytic activity in conditioned medium; also recorded: does not inhibit gelatinase activity of the metalloproteinases; also recorded: did not effect its activity in isolation”.
